The text below walks through data of ChEMBL document CHEMBL3779847, “Altered activity profile of a tertiary silanol analog of multi-targeting nuclear receptor modulator T0901317” (Bioorg Med Chem Lett, 2016).

Data set [1] addresses T1, Oxysterols receptor LXR-alpha (Homo sapiens, UniProt Q13133).
T1 sequence (Q13133 whole entry): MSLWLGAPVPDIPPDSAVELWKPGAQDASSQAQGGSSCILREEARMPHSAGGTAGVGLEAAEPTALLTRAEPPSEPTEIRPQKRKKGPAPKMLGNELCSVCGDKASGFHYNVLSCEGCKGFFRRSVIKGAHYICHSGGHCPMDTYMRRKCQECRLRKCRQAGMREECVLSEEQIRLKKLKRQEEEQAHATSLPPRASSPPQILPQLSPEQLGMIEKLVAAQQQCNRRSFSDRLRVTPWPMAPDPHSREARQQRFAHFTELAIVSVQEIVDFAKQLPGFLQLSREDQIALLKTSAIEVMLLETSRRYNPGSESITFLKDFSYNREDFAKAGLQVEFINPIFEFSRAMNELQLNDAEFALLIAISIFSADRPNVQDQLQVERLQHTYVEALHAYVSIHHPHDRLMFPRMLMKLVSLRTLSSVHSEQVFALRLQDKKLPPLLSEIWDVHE
The data set can be described thus: Agonist activity at human LXRalpha transfected in HEK293 cells after 24 hrs by luciferase reporter gene assay. It is filed as cell-based.

Data set [2] addresses T2, Nuclear receptor subfamily 1 group I member 2 (Homo sapiens, UniProt O75469).
T2 sequence (O75469 whole entry): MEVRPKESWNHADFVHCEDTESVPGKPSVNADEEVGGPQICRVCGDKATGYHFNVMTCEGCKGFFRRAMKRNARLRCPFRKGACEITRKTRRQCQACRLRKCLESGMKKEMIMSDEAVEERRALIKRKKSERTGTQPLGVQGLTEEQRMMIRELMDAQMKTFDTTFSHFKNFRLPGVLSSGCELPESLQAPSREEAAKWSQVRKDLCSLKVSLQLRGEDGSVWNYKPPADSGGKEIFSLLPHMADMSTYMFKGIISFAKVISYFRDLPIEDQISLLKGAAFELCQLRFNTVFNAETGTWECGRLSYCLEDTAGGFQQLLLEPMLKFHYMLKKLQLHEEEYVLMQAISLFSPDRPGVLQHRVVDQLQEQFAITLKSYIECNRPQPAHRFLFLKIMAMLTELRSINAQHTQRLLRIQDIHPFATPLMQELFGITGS
The data set can be described thus: Agonist activity at human PXR transfected in HEK293 cells after 24 hrs by luciferase reporter gene assay. It is filed as cell-based. Background: In a reporter assay the amount or activity of a reporter protein is the signal.

Data set [3] has as its target T3, Bile acid receptor (Homo sapiens, UniProt Q96RI1).
T3 sequence (Q96RI1 whole entry): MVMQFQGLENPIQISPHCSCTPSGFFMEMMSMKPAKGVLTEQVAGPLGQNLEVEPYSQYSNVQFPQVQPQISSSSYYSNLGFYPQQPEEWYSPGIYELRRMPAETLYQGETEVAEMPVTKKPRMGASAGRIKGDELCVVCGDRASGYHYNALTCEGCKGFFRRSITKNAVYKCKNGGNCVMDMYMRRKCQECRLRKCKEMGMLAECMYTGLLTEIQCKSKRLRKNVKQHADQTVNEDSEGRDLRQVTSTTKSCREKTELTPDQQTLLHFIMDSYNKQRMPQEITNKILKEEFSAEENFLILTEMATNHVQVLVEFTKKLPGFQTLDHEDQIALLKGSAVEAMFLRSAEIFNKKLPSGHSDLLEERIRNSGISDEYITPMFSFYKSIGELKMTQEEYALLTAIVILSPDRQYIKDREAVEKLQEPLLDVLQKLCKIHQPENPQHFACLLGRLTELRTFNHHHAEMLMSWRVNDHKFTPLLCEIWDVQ
As to the kind of experiment: Partial agonist activity at human FXR transfected in HEK293 cells after 24 hrs by luciferase reporter gene assay. It is filed as cell-based.

The next data set addresses T4, PXR (NR1I2) (Homo sapiens, UniProt O75469).
T4 sequence (O75469 whole entry): T2 sequence (O75469 whole entry)
As to the kind of experiment: Agonist activity at human PXR transfected in HEK293 cells after 24 hrs by luciferase reporter gene assay relative to T0901317. It is filed as cell-based. As to conditions: HEK293 cells transfected with human PXR, read-out: Efficacy; call rule not given here.

In data set [4] the target is T5, Oxysterols receptor LXR-beta (Homo sapiens, UniProt P55055).
T5 sequence (P55055 whole entry): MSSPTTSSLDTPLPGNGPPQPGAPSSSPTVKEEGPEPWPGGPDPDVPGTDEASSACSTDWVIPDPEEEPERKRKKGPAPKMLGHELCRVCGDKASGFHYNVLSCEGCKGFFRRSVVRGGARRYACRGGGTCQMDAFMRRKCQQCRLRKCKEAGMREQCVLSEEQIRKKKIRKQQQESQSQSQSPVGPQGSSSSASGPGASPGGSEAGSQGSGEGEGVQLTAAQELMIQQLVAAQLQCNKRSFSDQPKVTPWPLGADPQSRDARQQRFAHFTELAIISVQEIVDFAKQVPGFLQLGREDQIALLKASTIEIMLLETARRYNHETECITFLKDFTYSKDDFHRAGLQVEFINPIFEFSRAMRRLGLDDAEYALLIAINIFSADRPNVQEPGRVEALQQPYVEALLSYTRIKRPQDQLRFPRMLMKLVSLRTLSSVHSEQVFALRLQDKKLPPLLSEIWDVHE
As to the kind of experiment: Agonist activity at human LXRbeta transfected in HEK293 cells after 24 hrs by luciferase reporter gene assay. It counts as cell-based.

The target in data set [5] is T6, Nuclear receptor ROR-alpha (Homo sapiens, UniProt P35398).
T6 sequence (P35398 whole entry): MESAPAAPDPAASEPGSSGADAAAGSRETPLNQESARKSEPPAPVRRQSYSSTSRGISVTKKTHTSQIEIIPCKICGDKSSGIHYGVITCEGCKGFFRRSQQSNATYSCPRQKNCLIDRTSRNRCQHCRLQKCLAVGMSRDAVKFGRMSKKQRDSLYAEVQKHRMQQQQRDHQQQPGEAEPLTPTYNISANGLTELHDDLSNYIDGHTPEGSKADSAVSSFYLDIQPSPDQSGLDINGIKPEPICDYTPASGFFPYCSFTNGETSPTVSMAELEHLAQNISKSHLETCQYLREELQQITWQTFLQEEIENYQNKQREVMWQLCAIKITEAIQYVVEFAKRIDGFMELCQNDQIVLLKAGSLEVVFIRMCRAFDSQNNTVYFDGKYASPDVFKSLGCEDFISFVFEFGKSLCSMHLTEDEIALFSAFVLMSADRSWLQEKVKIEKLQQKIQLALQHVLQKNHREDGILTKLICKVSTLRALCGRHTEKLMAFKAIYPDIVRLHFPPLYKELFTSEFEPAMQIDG
The data set can be described thus: Inverse agonist activity at human RORalpha transfected in HEK293 cells after 24 hrs by beta galactosidase luciferase reporter gene assay. It counts as cell-based.

In data set [6] the target is T7, Bile acid receptor (Homo sapiens) (UniProt Q96RI1).
T7 sequence (whole entry): T3 sequence (Q96RI1 whole entry)
The data set can be described thus: Partial agonist activity at human FXR transfected in HEK293 cells after 24 hrs by luciferase reporter gene assay relative to T0901317. It is filed as cell-based.

Data set [7] concerns the target T8, Nuclear receptor ROR-gamma (Homo sapiens, UniProt P51449).
T8 sequence (P51449 whole entry): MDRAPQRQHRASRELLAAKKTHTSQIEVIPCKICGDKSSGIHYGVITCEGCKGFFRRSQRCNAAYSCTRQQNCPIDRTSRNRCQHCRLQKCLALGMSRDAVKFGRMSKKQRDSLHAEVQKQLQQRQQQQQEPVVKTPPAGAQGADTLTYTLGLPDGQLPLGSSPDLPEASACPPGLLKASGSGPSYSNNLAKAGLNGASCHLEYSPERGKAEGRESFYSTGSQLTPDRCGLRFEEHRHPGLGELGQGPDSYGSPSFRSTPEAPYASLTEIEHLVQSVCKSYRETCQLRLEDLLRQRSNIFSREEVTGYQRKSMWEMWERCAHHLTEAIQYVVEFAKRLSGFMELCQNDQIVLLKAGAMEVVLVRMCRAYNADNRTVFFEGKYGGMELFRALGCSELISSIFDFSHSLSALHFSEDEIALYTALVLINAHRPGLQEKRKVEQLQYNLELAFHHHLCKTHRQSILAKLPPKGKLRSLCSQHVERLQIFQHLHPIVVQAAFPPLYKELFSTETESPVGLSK
The data set can be described thus: Inverse agonist activity at human RORgamma transfected in HEK293 cells after 24 hrs by beta galactosidase luciferase reporter gene assay. It counts as cell-based.

In data set [8] the target is T9, Nuclear receptor ROR-beta (Homo sapiens, UniProt Q92753).
T9 sequence (Q92753 whole entry): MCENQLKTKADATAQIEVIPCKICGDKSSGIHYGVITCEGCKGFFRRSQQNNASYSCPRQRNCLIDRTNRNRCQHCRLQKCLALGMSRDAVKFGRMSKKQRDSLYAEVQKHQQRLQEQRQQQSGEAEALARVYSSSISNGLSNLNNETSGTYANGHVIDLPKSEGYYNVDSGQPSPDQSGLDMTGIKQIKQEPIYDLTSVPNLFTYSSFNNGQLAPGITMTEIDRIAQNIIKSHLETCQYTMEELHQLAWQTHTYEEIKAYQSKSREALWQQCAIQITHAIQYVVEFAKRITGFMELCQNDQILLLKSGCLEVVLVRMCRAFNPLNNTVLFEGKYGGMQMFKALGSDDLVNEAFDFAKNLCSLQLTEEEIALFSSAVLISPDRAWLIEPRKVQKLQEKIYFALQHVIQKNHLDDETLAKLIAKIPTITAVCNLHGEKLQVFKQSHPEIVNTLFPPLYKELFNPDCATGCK
The data set can be described thus: Inverse agonist activity at human RORbeta transfected in HEK293 cells after 24 hrs by beta galactosidase luciferase reporter gene assay. It counts as cell-based.

Data set [9] can be described thus: Octanol-water partition coefficient, log P of the compound by HPLC method. It is filed as physicochemical.
In data set [10] the target is T3, Bile acid receptor. The data set can be described thus: Agonist activity at human FXR transfected in HEK293 cells after 24 hrs by luciferase reporter gene assay. It counts as cell-based.

Usually EC50 stands for the concentration at which the effect is half-maximal. One may read the IC50 as the concentration that gives 50% inhibition. For orientation: logP means the decadic logarithm of the partition coefficient of the neutral form, usually between octanol and water. Higher therefore signals a more lipophilic compound. With `C[Si](C)(O)c1ccc(N(CC(F)(F)F)S(=O)(=O)c2ccccc2)cc1`, the EC50 result in data set [1] is “Not Active”; in data set [2] (read-out: EC50), 0.88 µM; at Bile acid receptor [3], 11 µM; in data set [4], “Not Active”. Besides, the Emax at 24 h on PXR (NR1I2) was found to be 61%. For the same compound, the IC50 came out at 53 µM in data set [5] (read-out: IC50), 43 µM in data set [7] (read-out: IC50) and 60 µM in [8] (read-out: IC50). For the same compound, the Efficacy in data set [6] worked out at 23%. In data set [9], this compound came in with a logP of 4.23.
On to `CO[C@H]1/C=C/O[C@@]2(C)Oc3c(C)c(O)c4c(O)c(c(/C=N/N5CCN(C)CC5)c(O)c4c3C2=O)NC(=O)/C(C)=C\C=C\[C@H](C)[C@H](O)[C@@H](C)[C@@H](O)[C@@H](C)[C@H](OC(C)=O)[C@@H]1C` [RIFAMPIN], for which, on PXR (NR1I2), the Emax at 24 h stood at 75%.
As to `CC(C)(O)c1ccc(N(CC(F)(F)F)S(=O)(=O)c2ccccc2)cc1`, the EC50 result (in [1]; in [2] (hek293); in data set [4]; on Bile acid receptor [10]) was “Not Active” throughout. The IC50 result in data set [5] (hek293), in data set [7] (hek293) and in data set [8] (hek293) was “Not Active” each time. The logP in data set [9] worked out at 3.7.
Consider `O=S(=O)(c1ccccc1)N(CC(F)(F)F)c1ccc(C(O)(C(F)(F)F)C(F)(F)F)cc1` [T091317], for which the IC50 result in data set [5] (hek293) and in data set [8] (hek293) was “Not Active” each time. Also, in [9], the logP turned out to be 5.38.
